{"source": "patent US4112228A", "about": "“7-(D-α-Hydroxy-2-arylacetamido)-3-(2-carboxyalkyl-2,3-dihydro-s-tri azolo-[4,3-b]pyridazin-3-on-6-ylthiomethyl)-3-cephem-4-carboxylic acids and derivatives” (priority 1977, dated 1978)", "key": {"Kl. pneumoniae": {"test_system": "Kl. pneumoniae", "assay": "MIC by Steers' agar dilution method", "format": "cell-based", "details": "Klebsiella pneumoniae"}, "Urinary recovery in rats": {"assay": "Urinary recovery in rats", "format": "in vivo", "details": "rat, urine, sc 10 mg./kg., 0-24 Hrs."}, "P. stuartii": {"test_system": "P. stuartii", "assay": "MIC by Steers' agar dilution method", "details": "Providencia stuartii"}, "Shig. flexneri": {"test_system": "Shig. flexneri", "assay": "MIC by Steers' agar dilution method", "format": "cell-based", "details": "Shigella flexneri, MHA"}, "Pr. morganii": {"test_system": "Pr. morganii", "assay": "MIC by Steers' agar dilution method", "details": "Morganella morganii"}, "Shig. sonnei": {"test_system": "Shig. sonnei", "assay": "MIC by Steers' agar dilution method", "format": "cell-based", "details": "Shigella sonnei, MHA"}, "E. coli Juhl": {"test_system": "E. coli Juhl", "assay": "Standard experimental infection in mice", "format": "in vivo", "details": "Table 6"}, "[1]": {"test_system": "P. mirabilis A9900 (Pm-2)", "assay": "Standard experimental infection (single sc treatment)", "details": "for No. of survivors/No. tested: Run C-810, 1×10^3 LD50, single sc"}, "S. typhimurium": {"test_system": "S. typhimurium", "assay": "MIC by Steers' agar dilution method", "details": "Salmonella enterica"}, "P. vulgaris A9436 (Pv-1)": {"test_system": "P. vulgaris A9436 (Pv-1)", "assay": "Standard experimental infection (single sc treatment)", "details": "for No. of survivors/No. tested: Run C-808, single sc"}}}
{"smiles": "Cn1nnnc1SCC1=C(C(=O)O)N2C(=O)[C@@H](NC(=O)[C@H](O)c3ccccc3)[C@H]2SC1", "note": "[Cefamandole, cefamandole, reference compound]", "values": [{"measurement": "MIC", "setting": "Kl. pneumoniae; Kp-4 A15130, NA, Table 4", "value": 0.8, "unit": "mg/L"}, {"measurement": "MIC", "setting": "Kl. pneumoniae; Kp-7 A9867, MHA, Table 3", "value": 0.8, "unit": "mg/L"}, {"measurement": "MIC", "setting": "Kl. pneumoniae; Kp-8 A20680, MHA, Table 3", "value": 12.5, "unit": "mg/L"}, {"measurement": "MIC", "setting": "Kl. pneumoniae; Kp-9 A20636, MHA, Table 3", "value": 12.5, "unit": "mg/L"}, {"measurement": "MIC", "setting": "Kl. pneumoniae; Kp-10 A20328, MHA, Table 3", "value": 3.1, "unit": "mg/L"}, {"measurement": "MIC", "setting": "Kl. pneumoniae; Kp-11 A20330, MHA, Table 3", "value": 12.5, "unit": "mg/L"}, {"measurement": "MIC", "setting": "Kl. pneumoniae; Kp-12 A21228, MHA, Table 3", "value": 6.3, "unit": "mg/L"}, {"measurement": "MIC", "setting": "Kl. pneumoniae; strain not named (1st of 4), MHA, Example 10", "value": 3.1, "unit": "mg/L"}, {"measurement": "MIC", "setting": "Kl. pneumoniae; strain not named (2nd of 4), MHA, Example 10", "value": 0.8, "unit": "mg/L"}, {"measurement": "MIC", "setting": "Kl. pneumoniae; strain not named (3rd of 4), MHA, Example 10", "value": 0.8, "unit": "mg/L"}, {"measurement": "MIC", "setting": "Kl. pneumoniae; strain not named (4th of 4), MHA, Example 10", "value": 0.8, "unit": "mg/L"}, {"measurement": "dose excreted at 24 h", "setting": "Urinary recovery in rats", "value": 58.3, "unit": "%"}, {"measurement": "MIC", "setting": "P. stuartii; Ps-1 A20745, HIA, Table 4", "value": 6.3, "unit": "mg/L"}, {"measurement": "MIC", "setting": "P. stuartii; Ps-1 A20745, MHA, Table 3", "value": 0.8, "unit": "mg/L"}, {"measurement": "MIC", "setting": "P. stuartii; Ps-1 A20745, MHA, Table 4", "value": 1.6, "unit": "mg/L"}, {"measurement": "MIC", "setting": "P. stuartii; Ps-1 A20745, NA, Table 4", "value": 6.3, "unit": "mg/L"}, {"measurement": "MIC", "setting": "P. stuartii; Ps-2 A20894, HIA, Table 4", "value": 0.4, "unit": "mg/L"}, {"measurement": "MIC", "setting": "P. stuartii; Ps-2 A20894, MHA, Table 3", "value": 0.8, "unit": "mg/L"}, {"measurement": "MIC", "setting": "P. stuartii; Ps-2 A20894, MHA, Table 4", "value": 0.2, "unit": "mg/L"}, {"measurement": "MIC", "setting": "P. stuartii; Ps-2 A20894, NA, Table 4", "value": 0.4, "unit": "mg/L"}, {"measurement": "MIC", "setting": "P. stuartii; Ps-3 A20911 (β-lactamase), HIA, Table 4", "value": 6.3, "unit": "mg/L"}, {"measurement": "MIC", "setting": "P. stuartii; Ps-3 A20911 (β-lactamase), MHA, Table 4", "value": 3.1, "unit": "mg/L"}, {"measurement": "MIC", "setting": "P. stuartii; Ps-3 A20911 (β-lactamase), NA, Table 4", "value": 6.3, "unit": "mg/L"}, {"measurement": "MIC", "setting": "P. stuartii; Ps-3 A20911, MHA, Table 3", "value": 0.8, "unit": "mg/L"}, {"measurement": "MIC", "setting": "P. stuartii; Ps-4 A21051, MHA, Table 3", "value": 25, "unit": "mg/L"}, {"measurement": "MIC", "setting": "P. stuartii; Ps-5 A21057, MHA, Table 3", "value": 0.8, "unit": "mg/L"}, {"measurement": "MIC", "setting": "Shig. flexneri; A9684, Table 1", "value": 6.3, "unit": "mg/L"}, {"measurement": "MIC", "setting": "Shig. flexneri; Example 10", "value": 6.3, "unit": "mg/L"}, {"measurement": "MIC", "setting": "Shig. flexneri; Sr-1 A9684, Table 3", "value": 3.1, "unit": "mg/L"}, {"measurement": "MIC", "setting": "Pr. morganii; A9553, MHA, Table 1", "value": "> 100", "unit": "mg/L"}, {"measurement": "MIC", "setting": "Pr. morganii; A20031, MHA, Table 1", "value": 0.8, "unit": "mg/L"}, {"measurement": "MIC", "setting": "Pr. morganii; Pg-1 A9553 (β-lactamase), HIA, Table 4", "value": "> 100", "unit": "mg/L"}, {"measurement": "MIC", "setting": "Pr. morganii; Pg-1 A9553 (β-lactamase), MHA, Table 4", "value": "> 100", "unit": "mg/L"}, {"measurement": "MIC", "setting": "Pr. morganii; Pg-1 A9553 (β-lactamase), NA, Table 4", "value": "> 100", "unit": "mg/L"}, {"measurement": "MIC", "setting": "Pr. morganii; Pg-1 A9553, MHA, Table 3", "value": "> 100", "unit": "mg/L"}, {"measurement": "MIC", "setting": "Pr. morganii; Pg-2 A20031, HIA, Table 4", "value": 0.8, "unit": "mg/L"}, {"measurement": "MIC", "setting": "Pr. morganii; Pg-2 A20031, MHA, Table 3", "value": 1.6, "unit": "mg/L"}, {"measurement": "MIC", "setting": "Pr. morganii; Pg-2 A20031, MHA, Table 4", "value": 0.8, "unit": "mg/L"}, {"measurement": "MIC", "setting": "Pr. morganii; Pg-2 A20031, NA, Table 4", "value": 0.4, "unit": "mg/L"}, {"measurement": "MIC", "setting": "Pr. morganii; Pg-3 A9636, MHA, Table 3", "value": 1.6, "unit": "mg/L"}, {"measurement": "MIC", "setting": "Pr. morganii; Pg-5 A15166, MHA, Table 3", "value": 0.2, "unit": "mg/L"}, {"measurement": "MIC", "setting": "Pr. morganii; Pg-6 A20455 (β-lactamase), HIA, Table 4", "value": 3.1, "unit": "mg/L"}, {"measurement": "MIC", "setting": "Pr. morganii; Pg-6 A20455 (β-lactamase), MHA, Table 4", "value": 1.6, "unit": "mg/L"}, {"measurement": "MIC", "setting": "Pr. morganii; Pg-6 A20455 (β-lactamase), NA, Table 4", "value": 1.6, "unit": "mg/L"}, {"measurement": "MIC", "setting": "Pr. morganii; Pg-6 A20455, MHA, Table 3", "value": 1.6, "unit": "mg/L"}, {"measurement": "MIC", "setting": "Pr. morganii; Pg-7 A20457, MHA, Table 3", "value": 0.8, "unit": "mg/L"}, {"measurement": "MIC", "setting": "Pr. morganii; Pg-8 A15153, MHA, Table 3", "value": 0.8, "unit": "mg/L"}, {"measurement": "MIC", "setting": "Pr. morganii; Pg-9 A15149, MHA, Table 3", "value": 3.1, "unit": "mg/L"}, {"measurement": "MIC", "setting": "Pr. morganii; strain not given (1st of 2), MHA, Example 10", "value": "> 100", "unit": "mg/L"}, {"measurement": "MIC", "setting": "Pr. morganii; strain not named (2nd of 2), MHA, Example 10", "value": 0.8, "unit": "mg/L"}, {"measurement": "MIC", "setting": "Shig. sonnei; A9516, Table 1", "value": 0.05, "unit": "mg/L"}, {"measurement": "MIC", "setting": "Shig. sonnei; Example 10", "value": 0.2, "unit": "mg/L"}, {"measurement": "MIC", "setting": "Shig. sonnei; Ss-1 Yale, Table 3", "value": 0.1, "unit": "mg/L"}, {"measurement": "No. of survivors/No. tested", "setting": "E. coli Juhl; 0.4 mg./kg.", "value": "0/5"}, {"measurement": "No. of survivors/No. tested", "setting": "E. coli Juhl; 1.6 mg./kg.", "value": "2/5"}, {"measurement": "No. of survivors/No. tested", "setting": "E. coli Juhl; 6.3 mg./kg.", "value": "5/5"}, {"measurement": "No. of survivors/No. tested", "setting": "E. coli Juhl; 25 mg./kg.", "value": "5/5"}, {"measurement": "ED50", "setting": "E. coli Juhl; Escherichia coli, read-out: PD50", "value": 1.8, "unit": "mg/kg"}, {"measurement": "ED50", "setting": "[1]; Proteus mirabilis, in Mus musculus, sc, read-out: PD50", "value": 50, "unit": "mg/kg"}, {"measurement": "No. of survivors/No. tested", "setting": "[1]; 0.2 mg./kg.", "value": "0/5"}, {"measurement": "No. of survivors/No. tested", "setting": "[1]; 0.8 mg./kg.", "value": "0/5"}, {"measurement": "No. of survivors/No. tested", "setting": "[1]; 3.1 mg./kg.", "value": "0/5"}, {"measurement": "No. of survivors/No. tested", "setting": "[1]; 12.5 mg./kg.", "value": "1/5"}, {"measurement": "No. of survivors/No. tested", "setting": "[1]; 50 mg./kg.", "value": "2/5"}, {"measurement": "MIC", "setting": "S. typhimurium", "value": 0.2, "unit": "mg/L"}, {"measurement": "ED50", "setting": "P. vulgaris A9436 (Pv-1); Proteus vulgaris, in Mus musculus, sc, read-out: PD50", "value": 36, "unit": "mg/kg"}, {"measurement": "No. of survivors/No. tested", "setting": "P. vulgaris A9436 (Pv-1); 0.8 mg./kg.", "value": "0/5"}, {"measurement": "No. of survivors/No. tested", "setting": "P. vulgaris A9436 (Pv-1); 3.1 mg./kg.", "value": "0/5"}, {"measurement": "No. of survivors/No. tested", "setting": "P. vulgaris A9436 (Pv-1); 12.5 mg./kg.", "value": "1/5"}, {"measurement": "No. of survivors/No. tested", "setting": "P. vulgaris A9436 (Pv-1); 50 mg./kg.", "value": "3/5"}]}
